Test results from patent US20250387481A1, “PRE-TREATED T CELLS FOR USE AS A MEDICAMENT” (STICHTING HET NEDERLANDS KANKER INSTITUUT-ANTONI VAN …, priority 2022, published 2025).

What was measured:
[1] = system: A375 (melanoma), EGL1 (hepatobiliary cancer) and MDA-MB-231 (breast cancer); KB1P organoids; test: Co-culture of cancer cells or KB1P organoids with T cells pretreated with vinblastine; assay type: cell-based, human; settings: Jurkat or mouse splenic T cells pretreated with vinblastine; MTT, cleaved caspase 3
Text: Data are shown for three different cell lines derived from human cancer, namely A375 (melanoma), EGL1 (hepatobiliary cancer) and MDA-MB-231 (breast cancer). Organoid apoptosis (determined by cleaved caspase 3 staining) in breast cancer mouse KB1P organoids following co-culture with mouse splenic T cells pretreated with control, vinblastine or colchicine is also shown in FIG. 18. Data are presented as mean with SEM. N=3 biological repeats per repeat.

[2] = system: KB1P organoids; test: Co-culture of pre-treated splenic T cells with KB1P organoids (MTT, cleaved-caspase 3); assay type: cell-based, mouse; settings: LCKi 10 μmol/L
[3] = system: MMTV-PyMT organoids expressing OVA; test: Co-culture of OT I T cells with MMTV-PyMT organoids expressing OVA (cleaved-caspase 3); assay type: cell-based, mouse; settings: LCKi 10 μmol/L
Procedure: Experiments were approved by the Animal Welfare Committee of the Netherlands Cancer Institute and were performed in accordance with national guidelines. Mice were housed in individually ventilated cage (IVC) systems under specific pathogen-free conditions and received chow and water ad libitum. FVB/NRj females (Janvier), C57BL/6-Tg (TcraTcrb) 1100Mjb/J females (OT I mice, Jackson laboratory), and ROSA26mTmG FVB females (NKI) were used at 8-20 weeks of age at the time of fat pad injection of tumor organoids or spleen isolation.
For T cells isolated from mouse mammary tumors, T cells were directly co-cultured with tumor organoids after FACS isolation. For T cells isolated from the spleen, T cells were treated for 72 h with PBS or with docetaxel (docetaxel 10 nmol/L), in the presence or absence of an LCKi (10 μmol/L, Merck Millipore, Cat. No. 213743-31-8). To evaluate the docetaxel-specificity of our observations, T cells were treated with paclitaxel 10 nmol/L or carboplatin 50 μmol/L for 72 h. Subsequently, T cells were collected and washed 3 times in PBS to remove residual chemotherapy or LCKi.
Organoids were fixed in 4% paraformaldehyde in PBS for 20 min at room temperature, followed by permeabilization in 0.2% TritonX-100 in PBS for 15 min at room temperature. […]

| SMILES | T cell mediated cancer cell killing [1] | effect of LCK inhibition on docetaxel-increased cytotoxic activity of CD4 or CD8 T cells [2] | killing of OVA-expressing organoids by OT I T cells [3] |
| --- | --- | --- | --- |
| CC[C@]1(O)C[C@@H]2CN(CCc3c([nH]c4ccccc34)[C@@](C(=O)OC)(c3cc4c(cc3OC)N(C)[C@H]3[C@@](O)(C(=O)OC)[C@H](OC(C)=O)[C@]5(CC)C=CCN6CC[C@]43[C@@H]65)C2)C1 [Vinblastine, vinblastine] | induces T cell mediated cancer cell killing |  |  |
| Nc1ncnc2c1c(-c1ccc(Oc3ccccc3)cc1)cn2C1CCCC1 [LCKi] |  | did not impair | reduced killing |
